# Data published in patent US20230075856A1, “CYCLIC SULFAMIDE COMPOUNDS FOR TREATMENT OF HBV” (Assembly Biosciences, Inc., priority 2018, published 2023).
# System: HBV viral load production from HepAD38 cells
# Assay: Viral production from HepAD38 cells: viral load in supernatant by qPCR of the HBV core sequence
# Format: cell-based
# Conditions: 5 days incubation, qPCR of supernatant HBV DNA vs DMSO control, read-out: viral load lowering EC50 (Activity)
# Summary of the method: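 HepAD38 cells seeded at 50,000/well in tetracycline-free medium with 2% FBS, treated with compounds (final top concentration 10 μM) for 5 days at 37 °C. Supernatant HBV DNA quantified by TaqMan qPCR of core sequence against HBV DNA standards, relative to DMSO controls; EC50 by four-parameter logistic fit.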
row,Compound,EC50
1,"COc1cccc(CNC(=O)C2CC(C(=O)Nc3ccc(F)c(Cl)c3)N(C)S(=O)(=O)N2)c1 (single isomer, unassigned) [Compound 721-ISOMER-B, N3-(3-chloro-4-fluoro-phenyl)-N5-[(3-methoxyphenyl)methyl]-2-methyl-1,1-dioxo-1,2,6-thiadiazinane-3,5-dicarboxamide]",0.1 to 10 µM
2,"CN1C(C(=O)Nc2ccc(F)c(Cl)c2)CC(C(=O)NCc2nn(-c3ccccc3)c3ccccc23)NS1(=O)=O (single isomer, unassigned) [1072-ISOMER-B, N3-(3-chloro-4-fluoro-phenyl)-2-methyl-1,1-dioxo-N5-[(1-phenylindazol-3-yl)methyl]-1,2,6-thiadiazinane-3,5-dicarboxamide]",0.1 to 10 µM
3,"Cc1nc(-c2ccc(F)cc2F)sc1CNC(=O)C1CC(C(=O)Nc2ccc(F)c(Cl)c2)N(C)S(=O)(=O)N1 (single isomer, unassigned; isomer-b) [1083-ISOMER-B, N3-(3-chloro-4-fluoro-phenyl)-N5-[[2-(2,4-difluroophenyl)-4-methyl-thiazol-5-yl]methyl]-2-methyl-1,1-dioxo-1,2,6-thiadiazinane-3,5-dicarboxamide]",0.1 to 10 µM
4,"CCN1C(C(=O)Nc2ccc(F)c(Cl)c2)CC(C(=O)NC2CCN(C(=O)OC)CC2)NS1(=O)=O (single isomer, unassigned) [Compound 890-ISOMER-B, methyl 4-[[5-[(3-chloro-4-fluoro-phenyl)carbamoyl]-6-ethyl-1,1-dioxo-1,2,6-thiadiazinane-3-carbonyl]amino]piperidine-1-carboxylate]",0.1 to 10 µM
5,"CN1C(C(=O)Nc2ccc(F)c(Cl)c2)CC(C(=O)NCc2ncc(-c3ccccc3)s2)NS1(=O)=O (single isomer, unassigned) [Compound 931-ISOMER-B, N3-(3-chloro-4-fluoro-phenyl)-2-methyl-1,1-dioxo-N5-[(5-phenylthiazol-2-yl)methyl]-1,2,6-thiadiazinane-3,5-dicarboxamide]",< 0.05 µM
6,"CN1C(C(=O)Nc2ccc(F)c(Cl)c2)CC(C(=O)NCC2CCCCC2)NS1(=O)=O (single isomer, unassigned) [1160-ISOMER-B, N3-(3-chloro-4-fluoro-phenyl)-N5-(cyclohexylmethyl)-2-methyl-1,1-dioxo-1,2,6-thiadiazinane-3,5-dicarboxamide]",0.1 to 10 µM
7,"CCc1nc(CNC(=O)C2CC(C(=O)Nc3ccc(F)c(Cl)c3)N(C)S(=O)(=O)N2)cs1 (single isomer, unassigned) [Compound 742-ISOMER-B, N3-(3-chloro-4-fluoro-phenyl)-N5-[(2-ethylthiazol-4-yl)methyl]-2-methyl-1,1-dioxo-1,2,6-thiadiazinane-3,5-dicarboxamide]",< 0.05 µM
8,"COC(=O)N1CCC(NC(=O)C2CC(C(=O)Nc3ccc(F)c(Cl)c3)N(CC(F)(F)F)S(=O)(=O)N2)CC1 (single isomer, unassigned; isomer-b) [Compound 893-ISOMER-B, methyl 4-[[5-[(3-chloro-4-fluroo-phenyl)carbamoyl]-1,1-dioxo-6-(2,2,2-trifluoroethyl)-1,2,6-thiadiazinane-3-carbonyl]amino]piperidine-1-carboxylate]",0.1 to 10 µM
9,"Cc1cn(-c2ccccc2)nc1CNC(=O)C1CC(C(=O)Nc2ccc(F)c(C#N)c2)N(C)S(=O)(=O)N1 (single isomer, unassigned) [1134-ISOMER-B, N3-(3-cyano-4-fluoro-phenyl)-2-methyl-N5-[(4-methyl-1-phenyl-pyrazol-3-yl)methyl]-1,1-dioxo-1,2,6-thiadiazinane-3,5-dicarboxamide]",< 0.05 µM
10,"CN1C(C(=O)Nc2ccc(F)c(Cl)c2)CC(C(=O)NCc2cnc(-c3ccc(F)cc3)s2)NS1(=O)=O (single isomer, unassigned) [Compound 916-ISOMER-B, N3-(3-chloro-4-fluoro-phenyl)-N5-[[2-(4-fluorophenyl)thiazol-5-yl]methyl]-2-methyl-1,1-dioxo-1,2,6-thiadiazinane-3,5-dicarboxamide]",< 0.05 µM
11,"CN1C(C(=O)Nc2ccc(F)c(Cl)c2)CC(C(=O)N[C@@H]2CCN(c3ccnc(Cl)c3)C2)NS1(=O)=O (single isomer, unassigned) [1055-R-ISOMER-B]",< 0.05 µM

# Same assay, conditions: Hepatitis B virus, HePAD38, 120 h, 5 days incubation, qPCR of supernatant HBV DNA vs DMSO control, read-out: viral load lowering EC50 (Activity)
row,Compound,EC50
1,"CN1C(C(=O)Nc2ccc(F)c(Cl)c2)CC(C(=O)N[C@@H](c2ccccc2)c2cnc(-c3ccccc3)s2)NS1(=O)=O (single isomer, unassigned) [1067-ISOMER-D]",0.1 to 10 µM
2,"CN1C(C(=O)Nc2ccc(F)c(Cl)c2)CC(C(=O)NC2CCN(C(=O)C3CC3)CC2)NS1(=O)=O (single isomer, unassigned) [Compound 854-ISOMER-A, N3-(3-chloro-4-fluoro-phenyl)-N5-[1-(cyclopropanecarbonyl)-4-piperidyl]-2-methyl-1,1-dioxo-1,2,6-thiadiazinane-3,5-dicarboxamide]",< 0.05 µM
3,CN1C(C(=O)Nc2ccc(F)c(Cl)c2)CC(C(=O)NCc2cnc(-c3ccccc3)s2)NS1(=O)=O (stereo not drawn) [Compound 691],< 0.05 µM
4,CN1C(C(=O)Nc2ccc(F)c(Cl)c2)CC(C(=O)NCc2cnc(-c3ccc(OCCCN4CCCC4)cc3)s2)NS1(=O)=O (stereo not drawn) [Compound 928],0.05 to 0.1 µM
5,Cc1nc(-c2ccccc2)sc1C(NC(=O)C1CC(C(=O)Nc2ccc(F)c(Cl)c2)N(C)S(=O)(=O)N1)c1ccccc1 (stereo not drawn) [Compound 1099],0.05 to 0.1 µM
6,CN1C(C(=O)Nc2ccc(F)c(Cl)c2)CC(C(=O)NCc2nc(C(F)(F)F)cs2)NS1(=O)=O (stereo not drawn) [Compound 1202],0.1 to 10 µM
7,"Cc1nc(-c2ccccc2F)sc1[C@H](NC(=O)C1CC(C(=O)Nc2ccc(F)c(Cl)c2)N(C)S(=O)(=O)N1)c1ccccc1 (single isomer, unassigned) [1101-ISOMER-A]",< 0.05 µM
8,CN1C(C(=O)Nc2ccc(F)c(Cl)c2)CC(C(=O)NC2CCN(c3ccnc(F)c3)CC2)NS1(=O)=O (stereo not drawn) [Compound 1040],< 0.05 µM
9,"CN1C(C(=O)Nc2ccc(F)c(Cl)c2)CC(C(=O)NCc2csc(-c3ccc(OCCN4CCCCC4)cc3)n2)NS1(=O)=O (single isomer, unassigned) [Compound 957-ISOMER-A, N3-(3-chloro-4-fluoro-phenyl)-2-methyl-1,1-dioxo-N5-[[2-[4-[2-(1-piperidyl)ethoxy]phenyl]thiazol-4-yl]methyl]-1,2,6-thiadiazinane-3,5-dicarboxamide]",< 0.05 µM
10,CN1C(C(=O)Nc2ccc(F)c(Cl)c2)CC(C(=O)NCc2sc(-c3ccccc3F)nc2C(F)(F)F)NS1(=O)=O (stereo not drawn) [Compound 1082],< 0.05 µM
11,CN1C(C(=O)Nc2ccc(F)c(Cl)c2)CC(C(=O)NCc2sc(-c3ccccc3Cl)nc2C(F)(F)F)NS1(=O)=O (stereo not drawn) [Compound 1064],< 0.05 µM
12,"CCN1C(C(=O)Nc2ccc(F)c(Cl)c2)CC(C(=O)NC2CCN(C(=O)OC)CC2)NS1(=O)=O (single isomer, unassigned) [Compound 890-ISOMER-A, methyl 4-[[5-[(3-chloro-4-fluoro-phenyl)carbamoyl]-6-ethyl-1,1-dioxo-1,2,6-thiadiazinane-3-carbonyl]amino]piperidine-1-carboxylate]",< 0.05 µM
13,CN1C(C(=O)Nc2ccc(F)c(Cl)c2)CC(C(=O)NCc2cnc(-c3ccc(F)cc3)s2)NS1(=O)=O (stereo not drawn) [Compound 916],< 0.05 µM
14,CN1C(C(=O)Nc2ccc(F)c(Cl)c2)CC(C(=O)Nc2cccc3cnccc23)NS1(=O)=O (stereo not drawn) [Compound 485],< 0.05 µM
15,"Cc1ncc(CNC(=O)C2CC(C(=O)Nc3ccc(F)c(Cl)c3)N(CC(F)(F)F)S(=O)(=O)N2)s1 (single isomer, unassigned) [Compound 891-ISOMER-A, N3-(3-chloro-4-fluoro-phenyl)-N5-[(2-methylthiazol-5-yl)methyl]-1,1-dioxo-2-(2,2,2-trifluoroethyl)-1,2,6-thiadiazinane-3,5-dicarboxamide]",0.1 to 10 µM
16,CN1C(C(=O)Nc2ccc(F)c(Cl)c2)CC(C(=O)NC2CCN(c3ccnc(C4CC4)c3)CC2)NS1(=O)=O (stereo not drawn) [Compound 1051],< 0.05 µM
17,"CN1C(C(=O)Nc2ccc(F)c(Cl)c2)CC(C(=O)NCc2nn(-c3ccccc3F)c3ccccc23)NS1(=O)=O (single isomer, unassigned) [1086-ISOMER-A, N3-(3-chloro-4-fluoro-phenyl)-N5-[[1-(2-fluorophenyl)indazol-3-yl]methyl]-2-methyl-1,1-dioxo-1,2,6-thiadiazinane-3,5-dicarboxamide]",< 0.05 µM
18,CN1C(C(=O)Nc2ccc(F)c(Cl)c2)CC(C(=O)NCc2cnc(Cl)s2)NS1(=O)=O (stereo not drawn) [Compound 1199],< 0.05 µM
19,"CN1C(C(=O)Nc2ccc(F)c(Cl)c2)CC(C(=O)NCC2CCCCC2)NS1(=O)=O (single isomer, unassigned) [1160-ISOMER-A, N3-(3-chloro-4-fluoro-phenyl)-N5-(cyclohexylmethyl)-2-methyl-1,1-dioxo-1,2,6-thiadiazinane-3,5-dicarboxamide]",0.05 to 0.1 µM
20,Cc1cnn(-c2ccccc2)c1CNC(=O)C1CC(C(=O)Nc2ccc(F)c(Cl)c2)N(C)S(=O)(=O)N1 (stereo not drawn) [Compound 1104],< 0.05 µM
21,CN1C(C(=O)Nc2ccc(F)c(C#N)c2)CC(C(=O)NCc2cnc(-c3ccccc3)s2)NS1(=O)=O (stereo not drawn) [Compound 830],0.05 to 0.1 µM
22,"CN1C(C(=O)N(Cc2cnc(-c3cscn3)s2)c2ccc(F)c(Cl)c2)CC(C(N)=O)NS1(=O)=O (single isomer, unassigned) [Compound 929-ISOMER-A, N3-(3-chloro-4-fluoro-phenyl)-2-methyl-1,1-dioxo-N-[(2-thiazol-4-ylthiazol-5-yl)methyl]-1,2,6-thiadiazinane-3,5-dicarboxamide]",0.1 to 10 µM
23,"CN1C(C(=O)Nc2ccc(F)c(Cl)c2)CC(C(=O)N[C@H]2CCN(c3ccnc(Cl)c3)C2)NS1(=O)=O (single isomer, unassigned) [1055-S-ISOMER-A]",0.1 to 10 µM
24,Cc1cc(CNC(=O)C2CC(C(=O)Nc3ccc(F)c(Cl)c3)N(C)S(=O)(=O)N2)on1 (stereo not drawn) [Compound 489],0.05 to 0.1 µM
25,Cc1nc(CNC(=O)C2CC(C(=O)Nc3ccc(F)c(Cl)c3)N(C)S(=O)(=O)N2)sc1-c1ccccc1 (stereo not drawn) [Compound 1070],< 0.05 µM
